Results as given in ChEMBL document CHEMBL1201862, “PubChem BioAssay data set” (2004).
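Step 1: Grow cells in 96-well plates. Step 2: Expose to compound for 48 hours at 5 concentrations. Step 3: Interpolate endpoints linearly; if unreached, use highest concentration. GI50: concentration for 50% inhibition of growth.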 Active and inactive are the calls of the source. Rule as the data show it: active = GI50 up to about 1.1 µM and inactive = higher.

Experiments:
Experiment in all cases: inhibition of tumour cell growth, NCI panel, 48 h
CAKI-1 = system: CAKI-1
HCT-15 = system: HCT-15
HOP-92 = system: HOP-92
K562 = system: K562
NCI-H226 = system: NCI-H226
NCI-H460 = system: NCI-H460
NCI-H522 = system: NCI-H522
NCI/ADR-RES = system: NCI/ADR-RES
OVCAR-3 = system: OVCAR-3
OVCAR-4 = system: OVCAR-4
PC-3 = system: PC-3
SF-539 = system: SF-539
SK-MEL-5 = system: SK-MEL-5
SK-OV-3 = system: SK-OV-3
SN12C = system: SN12C
SNB-75 = system: SNB-75
TK-10 = system: TK-10
U-251 = system: U-251
UACC-62 = system: UACC-62
UO-31 = system: UO-31

| SMILES | GI50 (CAKI-1) | GI50 (HCT-15) [µM] | GI50 (HOP-92) | GI50 (K562) | GI50 (NCI-H226) | GI50 (NCI-H460) | GI50 (NCI-H522) | GI50 (NCI/ADR-RES) | GI50 (OVCAR-3) | GI50 (OVCAR-4) | GI50 (PC-3) | GI50 (SF-539) | GI50 (SK-MEL-5) | GI50 (SK-OV-3) | GI50 (SN12C) | GI50 (SNB-75) | GI50 (TK-10) | GI50 (U-251) | GI50 (UACC-62) | GI50 (UO-31) |
| --- | --- | --- | --- | --- | --- | --- | --- | --- | --- | --- | --- | --- | --- | --- | --- | --- | --- | --- | --- | --- |
| Cc1ccccc1CN1CC2=C(CCN(Cc3ccccc3)C2=O)N2CCN=C12 | 4.69 µM (inactive) | 5.04 | 21.6 µM (inactive) | 2.96 µM (inactive) | 3.56 µM (inactive) | 4.24 µM (inactive) | 3.73 µM (inactive) | 4.09 µM (inactive) | 4.48 µM (inactive) | 3.27 µM (inactive) | 3.58 µM (inactive) | 52.4 µM (inactive) | 2.63 µM (inactive) | 7.78 µM (inactive) | 5.6 µM (inactive) | 6.08 µM (inactive) | 7.35 µM (inactive) | 4.8 µM (inactive) | 11.1 µM (inactive) | 6.81 µM (inactive) |
| [O-]/[N+](=N/c1ncc(-c2ccccc2)cn1)c1ncc(-c2ccccc2)cn1 | > 100 µM (inactive) | 36.4 | 69 µM (inactive) | 52.8 µM (inactive) | > 94.8 µM (inactive) | > 100 µM (inactive) | 14.8 µM (inactive) | 62.1 µM (inactive) | > 83.8 µM (inactive) | 54.6 µM (inactive) | 92.7 µM (inactive) | > 65.2 µM (inactive) | 42.7 µM (inactive) | > 100 µM (inactive) | > 100 µM (inactive) | > 100 µM (inactive) | > 100 µM (inactive) | 44.1 µM (inactive) | > 100 µM (inactive) | > 66.1 µM (inactive) |
| CC1=C(C#N)c2nc3ccccc3n2C(=O)C1(C)CCO (stereo unspecified) | > 100 µM (inactive) | > 100 | > 100 µM (inactive) | > 100 µM (inactive) | > 100 µM (inactive) | > 100 µM (inactive) | > 100 µM (inactive) | > 100 µM (inactive) | > 100 µM (inactive) | > 100 µM (inactive) | > 100 µM (inactive) | > 100 µM (inactive) | > 100 µM (inactive) | > 100 µM (inactive) | > 100 µM (inactive) | > 100 µM (inactive) | > 100 µM (inactive) | > 100 µM (inactive) | > 100 µM (inactive) | > 100 µM (inactive) |
| CCCCC1=NNC(=O)C1 | > 100 µM (inactive) | > 100 | > 100 µM (inactive) | – | > 100 µM (inactive) | > 100 µM (inactive) | > 100 µM (inactive) | > 100 µM (inactive) | > 100 µM (inactive) | > 100 µM (inactive) | > 100 µM (inactive) | > 100 µM (inactive) | > 100 µM (inactive) | > 100 µM (inactive) | > 100 µM (inactive) | > 100 µM (inactive) | – | > 100 µM (inactive) | > 100 µM (inactive) | > 100 µM (inactive) |
| CC1C=CN(N(C)C)C2=C1C(=O)c1cnccc1C2=O (stereo unspecified) | 0.108 µM (active) | 0.231 | 2.07 µM (inactive) | 0.205 µM (active) | 0.508 µM (active) | 0.148 µM (active) | 0.17 µM (active) | 0.927 µM (active) | 0.792 µM (active) | 0.662 µM (active) | 1.49 µM (inactive) | 0.293 µM (active) | 0.274 µM (active) | 0.682 µM (active) | 0.168 µM (active) | 0.315 µM (active) | 0.513 µM (active) | 0.417 µM (active) | 0.167 µM (active) | 0.167 µM (active) |
| O=c1c2cccnc2[nH]c2ccc3cn[nH]c3c12 | 8.77 µM (inactive) | 9.42 | > 10 µM (inactive) | > 10 µM (inactive) | 5.38 µM (inactive) | 7.43 µM (inactive) | > 10 µM (inactive) | > 10 µM (inactive) | > 10 µM (inactive) | > 10 µM (inactive) | > 10 µM (inactive) | 7.52 µM (inactive) | > 10 µM (inactive) | > 10 µM (inactive) | 9.06 µM (inactive) | 7.89 µM (inactive) | > 10 µM (inactive) | > 10 µM (inactive) | > 10 µM (inactive) | – |
| CC(CC(C)[C@H]1CCC2[C@H]3C(CC[C@@]21C)[C@@]1(C)CCC(O)C[C@H]1C[C@@H]3O)C(=O)O (stereo partly specified) | > 100 µM (inactive) | > 100 | > 100 µM (inactive) | 26.2 µM (inactive) | > 100 µM (inactive) | > 100 µM (inactive) | > 100 µM (inactive) | > 100 µM (inactive) | – | > 100 µM (inactive) | > 100 µM (inactive) | > 100 µM (inactive) | – | – | > 100 µM (inactive) | > 100 µM (inactive) | > 100 µM (inactive) | > 100 µM (inactive) | > 100 µM (inactive) | 66.2 µM (inactive) |
| O=C(O)CNCCc1ccccc1 | > 100 µM (inactive) | > 100 | > 100 µM (inactive) | > 100 µM (inactive) | > 100 µM (inactive) | > 100 µM (inactive) | > 100 µM (inactive) | > 100 µM (inactive) | > 100 µM (inactive) | > 100 µM (inactive) | > 100 µM (inactive) | – | > 100 µM (inactive) | > 100 µM (inactive) | > 100 µM (inactive) | > 100 µM (inactive) | > 100 µM (inactive) | > 100 µM (inactive) | > 100 µM (inactive) | > 100 µM (inactive) |
| c1ccc2c(c1)[nH]c1c2cc[n+]2cc3c(cc12)CCCC3 | 17.2 µM (inactive) | 10.5 | 3.25 µM (inactive) | 1.6 µM (inactive) | 2.03 µM (inactive) | 1.34 µM (inactive) | 1.79 µM (inactive) | 44.6 µM (inactive) | 1.16 µM (inactive) | 1.72 µM (inactive) | 2.83 µM (inactive) | 1.64 µM (inactive) | 1.54 µM (inactive) | 3.87 µM (inactive) | 2.61 µM (inactive) | 5.96 µM (inactive) | 6.68 µM (inactive) | 2.51 µM (inactive) | – | 16.3 µM (inactive) |
| CN(C)/N=C1\CC(c2ccccc2)C(C#N)(C#N)C1(C#N)C#N (stereo unspecified) | 8.63 µM (inactive) | 15.4 | 14.8 µM (inactive) | 3.2 µM (inactive) | 23.8 µM (inactive) | – | 12.2 µM (inactive) | 26.8 µM (inactive) | – | 33.2 µM (inactive) | 19 µM (inactive) | 41.4 µM (inactive) | 11.6 µM (inactive) | 50.1 µM (inactive) | 20.8 µM (inactive) | 15.7 µM (inactive) | 17.5 µM (inactive) | 35.3 µM (inactive) | 16 µM (inactive) | 18.6 µM (inactive) |
| CCc1nc(N)c2nc(-c3ccc(C#N)cc3)oc2n1 | > 100 µM (inactive) | > 100 | > 100 µM (inactive) | > 100 µM (inactive) | > 100 µM (inactive) | > 100 µM (inactive) | > 100 µM (inactive) | > 100 µM (inactive) | > 100 µM (inactive) | – | > 100 µM (inactive) | > 100 µM (inactive) | > 100 µM (inactive) | – | > 100 µM (inactive) | > 100 µM (inactive) | > 100 µM (inactive) | – | > 100 µM (inactive) | > 100 µM (inactive) |
| CCOC(=O)C(O)(NC(C)=O)C(F)(F)F (stereo unspecified) | > 100 µM (inactive) | > 100 | 26.2 µM (inactive) | > 100 µM (inactive) | > 100 µM (inactive) | – | > 100 µM (inactive) | > 100 µM (inactive) | > 100 µM (inactive) | > 100 µM (inactive) | > 100 µM (inactive) | > 100 µM (inactive) | > 100 µM (inactive) | > 100 µM (inactive) | > 100 µM (inactive) | > 100 µM (inactive) | > 100 µM (inactive) | > 100 µM (inactive) | > 100 µM (inactive) | > 100 µM (inactive) |
| CCOC(=O)C(Cl)(NC(=O)OCc1ccccc1)C(F)(F)F (stereo unspecified) | > 100 µM (inactive) | > 100 | > 100 µM (inactive) | > 100 µM (inactive) | > 100 µM (inactive) | – | > 100 µM (inactive) | > 100 µM (inactive) | > 100 µM (inactive) | > 100 µM (inactive) | > 100 µM (inactive) | > 100 µM (inactive) | > 100 µM (inactive) | > 100 µM (inactive) | > 100 µM (inactive) | > 100 µM (inactive) | > 100 µM (inactive) | > 100 µM (inactive) | – | > 100 µM (inactive) |
| C=CCN1C(=O)/C(=C/c2ccco2)N=C1SC1OC(COC(C)=O)C(OC(C)=O)C(OC(C)=O)C1OC(C)=O (stereo unspecified) | > 100 µM (inactive) | 88.1 | 72.9 µM (inactive) | 39.8 µM (inactive) | 78.3 µM (inactive) | > 100 µM (inactive) | 15.9 µM (inactive) | > 100 µM (inactive) | > 100 µM (inactive) | > 100 µM (inactive) | > 100 µM (inactive) | > 100 µM (inactive) | > 100 µM (inactive) | > 100 µM (inactive) | – | > 100 µM (inactive) | > 100 µM (inactive) | > 100 µM (inactive) | 83.9 µM (inactive) | – |
| CC[C@@]12CCC(=S)N(CCSc3ccccc3)[C@@H]1c1c(n(S(=O)(=O)c3ccc(OC)cc3)c3ccccc13)CC2 | > 100 µM (inactive) | > 100 | 73.6 µM (inactive) | > 100 µM (inactive) | 68.1 µM (inactive) | > 100 µM (inactive) | > 100 µM (inactive) | > 100 µM (inactive) | > 100 µM (inactive) | – | > 100 µM (inactive) | 88.1 µM (inactive) | > 100 µM (inactive) | > 100 µM (inactive) | > 100 µM (inactive) | 46.3 µM (inactive) | 52 µM (inactive) | > 100 µM (inactive) | > 100 µM (inactive) | > 100 µM (inactive) |
